Experimental data taken from US12485108B2, “Method for treating fatty liver disease and/or steatohepatitis” (BEIJING TIDE PHARMACEUTICAL CO., LTD., priority 2019, dated 2025).

Tests used:
[1] = system: High Fat+Streptozotocin Induced Mouse Model; assay: High fat+streptozotocin induced mouse steatohepatitis model; type: in vivo, mice; settings: for Inhibition Rate (%) on Ballooning Degeneration of Liver Cells: H&E staining score of liver vs model group; for Inhibition Rate (%) on Ballooning Degeneration of Liver Cells / Inhibition Rate (%) on Collagen Accumulation in Liver Tissue / Body Weight / Liver Weight / Liver Weight/Body Weight / Inhibition Rate (%) on Fatty Degeneration: oral once a day for 21 days, compound C 100 mg/kg, telmisartan 50 mg/kg; for Inhibition Rate (%) on Collagen Accumulation in Liver Tissue: Picrosirius red staining score of liver vs model group; for Body Weight / Liver Weight / Liver Weight/Body Weight: at the end of the test; for Body Weight: after fasting; for Inhibition Rate (%) on Fatty Degeneration: oil red O staining score of liver vs model group
Protocol: Pregnant mice were purchased from Shanghai Lingchang Laboratory Animal Co., Ltd. Thirty 2-day-old newborn male mice were chosen for the test. Each mouse was injected with 200 μg of streptozotocin (STZ, purchased from Sigma) and fed a high-fat diet for 2 weeks from 4-week-old to induce a steatohepatitis model. Meanwhile, another ten mice were selected as a normal group where they were fed a normal diet without injection of STZ. After 2 weeks of high-fat diet feeding, the mice were divided into 3 groups according to their body weights and fasting blood glucose levels: a model group, a compound C administration group, and a telmisartan (purchased from TOKYO CHEMICAL) administration group. Each group underwent once-a-day oral administration of the corresponding substance for 21 consecutive days. The body weights of mice were recorded each day (see FIG. 1A and FIG. 1B), and after the final administration, the body weights of mice after fasting were recorded (see Table 2 and FIG. 2A and FIG. 2B). The animals were euthanized, and their liver tissues were harvested. The liver tissues were weighed and subjected to histologic scoring (blind assessment) in respect of ballooning degeneration, fatty degeneration, and collagen accumulation, etc. Histologic changes were assessed by hematoxylin and eosin (H&E) staining, oil red O staining and Picrosirius red staining of the liver tissues, where the H&E staining was used for assessing the ballooning degeneration of liver cells, the oil red O staining was used for reflecting the fatty degeneration of liver and the Picrosirius red staining was used for assessing collagen accumulation. Relevant scores are shown in FIG. 3A, FIG. 3B and FIG. 3C, and inhibition rates of various histologic changes are shown in Table 3.
Scoring criteria: fatty degeneration is scored on a scale from 0 to 3, where lesion area <5% is scored as 0, lesion area of 5-33% is scored as 1, lesion area of 33-66% is scored as 2 and lesion area >66% is scored as 3. Ballooning degeneration of liver cells is scored on a scale from 0 to 2, where no ballooning degeneration is scored as 0, little ballooning degeneration is a scored as 1, and ballooning degeneration of most cells or significant ballooning degeneration is scored as 2. Collagen accumulation is scored on a scale from 0 to 4 with reference to the scoring criteria reported in Brunt E M, et al., Hepatology (2011).
The inhibition rates (%) on fatty degeneration, ballooning degeneration of liver cells and collagen accumulation in liver tissue shown in Table 3 were calculated according to the following formulae, respectively (the normal group was scored as 0): Inhibition rate (%) on fatty degeneration=100%×(the average score of the model group−the average score of the administration group)/(the average score of the model group−the average score of the normal group) Inhibition rate (%) on ballooning degeneration of liver cells=100%×(the average score of the model group−the average score of the administration group)/(the average score of the model group−the average score of the normal group) Inhibition rate (%) on collagen accumulation in liver tissue=100%×(the average score of the model group−the average score of the administration group)/(the average score of the model group−the average score of the normal group)

[2] = system: High Fat+High Cholesterol Diet and N-Diethylnitrosamine Induced Rat Model; assay: High fat+high cholesterol diet and N-diethylnitrosamine induced rat model, NAS scoring; type: in vivo, SD rats; settings: compound C administration groups (50 mg/kg and 100 mg/kg), intragastric once a day for 49 days; H&E staining; model group score 6
Protocol: Pregnant SD rats were purchased from Shanghai Jihui Laboratory Animal Care Co., Ltd, and neonatal rats obtained therefrom were used in this study. Forty male neonatal rats were chosen to receive a single injection of N-diethylnitrosamine (DEN, purchased from Sigma) at 2 weeks of age. After the neonatal rats were fed rat milk for 2 weeks, they were randomly divided into 4 groups (10 animals in each group) according to their body weights: a model group (0.5% CMC-Na), a compound C (50 mg/kg) administration group, a compound C (100 mg/kg) administration group, and an obeticholic acid (OCA, purchased from WuXi AppTec (Wuhan), 30 mg/kg) administration group. Each neonatal rat was fed a western diet (a high fat+high cholesterol feed, purchased from Trophic Animal Feed High-Tech Co., Ltd, China, Su Si certificate (2014) No. 06092) for 8 weeks. Meanwhile, another 8 male neonatal rats were selected as a normal group, which were fed rat milk for 4 weeks and then fed a normal diet instead of the high fat+high cholesterol diet. Starting from day 8 of high fat+high cholesterol diet feeding, the vehicle (0.5% CMC-Na), compound C and OCA were each administrated intragastrically once a day, for 49 consecutive days.
Animals were euthanized 2 h after the final administration, and their liver tissues were harvested. […]

[3] = system: High Fat+High Cholesterol+High Sugar+Carbon Tetrachloride Induced Mouse Model; assay: High fat+high cholesterol+high sugar+carbon tetrachloride induced mouse steatohepatitis model; type: in vivo, mice; settings: three 21-day courses; for Collagen accumulation in liver tissue: Picrosirius red staining; for Collagen accumulation in liver tissue / Serum cholesterol level / Serum low density lipoprotein level: oral once a day, compound C 100 mg/kg, telmisartan 10 mg/kg; for Serum cholesterol level / Serum low density lipoprotein level: vs model group (compound C p<0.05)
Protocol: Mice which were 8-10 weeks old (purchased from Jiangsu GemPharmatech Co., Ltd.) were fed a western diet (a high fat+high cholesterol feed, purchased from Beijing Hfk Bioscience Co., Ltd.) and a high-sugar solution (23.1 g/L D-fructose and 18.9 g/L D-glucose) and injected intraperitoneally with carbon tetrachloride to induce a steatohepatitis model. Starting from day 7 (D7) of western diet+high-sugar solution feeding, the mice were injected intraperitoneally with 0.05 ml of 20% carbon tetrachloride once a week, for 12 weeks. Animals were divided into groups (8 animals in each group) on day 28: a model group (administrated with a vehicle composed of PEG400, Tween-80 and deionized water), a compound C (100 mg/kg) administration group, and a telmisartan (10 mg/kg) administration group. Starting from day 28, the vehicle, compound C and telmisartan were each administered orally once a day, for three 21-day treatment courses at one-week intervals. Meanwhile, a normal control group was set wherein the mice were fed a normal diet combined with normal drinking water. Peripheral blood was taken from animals 2 h after the final administration, and serum was isolated. The animals were euthanized, and their liver tissues were harvested. The serum was mainly used to measure the levels of cholesterol and low density lipoprotein. The liver tissues were stained with Picrosirius red to assess collagen accumulation, and the ratio of endothelial cells to macrophages was measured by flow cytometry to reflect liver damage.

[4] = system: Carbon Tetrachloride Induced Mouse Model; assay: Carbon tetrachloride induced mouse model; type: in vivo, mice; settings: Picrosirius red staining
Protocol: Mice which were 8-10 weeks old (purchased from Jiangsu GemPharmatech Co., Ltd.) were randomly divided into 4 groups (8 animals in each group) according to their body weights: a model group (administrated with a vehicle, 0.5% CMC-Na), a compound C (300 mg/kg) administration group, a compound C (100 mg/kg) administration group, and a telmisartan (10 mg/kg) administration group. Each mouse was injected intraperitoneally with 0.05 ml of 40% CCl4 twice a week, for 6 consecutive weeks. Starting from day 15, each group underwent an intragastric administration of the corresponding substance once a day, for 28 consecutive days. Meanwhile, a normal control group was set wherein the mice in this group were fed a normal diet combined with normal drinking water. Animals were euthanized 2 h after the final administration, and their liver tissues were harvested and stained with Picrosirius red to assess collagen accumulation.

[5] = system: High Fat+High Cholesterol+Carbon Tetrachloride Induced Mouse Model; assay: High fat+high cholesterol+carbon tetrachloride induced mouse steatohepatitis model; type: in vivo, mice; settings: oral once a day, three 21-day courses, compound C 100 mg/kg, telmisartan 10 mg/kg; for Collagen accumulation in liver tissue: Picrosirius red staining, vs model group (compound C p<0.01; telmisartan p>0.05); for Serum cholesterol level / Serum low density lipoprotein level: vs model group (compound C p<0.01)
From the text: Mice which were 8-10 weeks old (purchased from Jiangsu GemPharmatech Co., Ltd.) were fed a western diet (a high fat+high cholesterol feed, purchased from Beijing Hfk Bioscience Co., Ltd.) and injected intraperitoneally with carbon tetrachloride to induce a steatohepatitis model. Experimental animals were randomly divided into 3 groups (8 animals in each group) according to their body weights: a model group (administrated with a vehicle composed of PEG400, Tween-80 and deionized water), a compound C (100 mg/kg) administration group, and a telmisartan (10 mg/kg) administration group. Starting from day 5 (D5) of western diet feeding, each group underwent an intraperitoneal injection of 0.05 ml of 20% CCl4 once a week, for 12 weeks. Starting from day 21, the vehicle, compound C and telmisartan were each administered orally once a day, for three 21-day treatment courses at one-week intervals. Meanwhile, a normal control group was set wherein the mice were fed a normal diet combined with normal drinking water. Peripheral blood was taken from animals 2 h after the final administration, and serum was isolated. The animals were euthanized and their liver tissues were harvested. The serum was mainly used to measure the levels of cholesterol and low density lipoprotein. The liver tissues were stained with Picrosirius red to assess collagen accumulation.

Row | Structure (SMILES) | Therapeutic effect (fatty degeneration, ballooning degeneration, collagen accumulation of liver tissue) ([1]; 100 mg/kg oral once a day for 21 days) | Inhibition Rate (%) on Ballooning Degeneration of Liver Cells [1] [%] | Inhibition Rate (%) on Collagen Accumulation in Liver Tissue [1] [%] | Body Weight [1] [g] | Liver Weight [1] [mg] | Liver Weight/Body Weight [1] [%] | Inhibition Rate (%) on Fatty Degeneration [1] [%] | NAS score of liver tissue [2] | Collagen accumulation in liver tissue ([3]; vs model group (p<0.01)) | Proportion of endothelial cells in liver tissue ([3]; flow cytometry, vs model group (p<0.01), compound C 100 mg/kg oral once a day) | Proportion of macrophages in liver tissue ([3]; flow cytometry, vs model group, compound C 100 mg/kg oral once a day) | Serum cholesterol level [3] | Serum low density lipoprotein level [3] | Collagen accumulation in liver tissue ([4]; 100 mg/kg intragastric once a day for 28 days, vs model group (p<0.001)) | Collagen accumulation in liver tissue ([4]; 300 mg/kg intragastric once a day for 28 days, vs model group (p<0.001)) | Collagen accumulation in liver tissue [5] | Serum cholesterol level [5] | Serum low density lipoprotein level [5] | Collagen accumulation in liver tissue ([4]; 10 mg/kg intragastric once a day for 28 days, vs model group (p>0.05))
1 | Cn1c(C(=O)N2CC(F)(F)C2)cc2ccc(-c3nccc(Nc4ccc(-c5cn[nH]c5)cc4)n3)cc21 [Compound C] | significant therapeutic effects | 60.00 | 44.44 | 17.1 ± 0.59 | 872.3 ± 17.91 | 5.1 ± 0.15 | 66.67 | about 4.2 | significantly reduced | increased | reduced at a certain extent | significantly reduced | significantly reduced | significantly reduced | significantly reduced | significantly reduced | significantly reduced | significantly reduced | –
2 | CCCc1nc2c(C)cc(-c3nc4ccccc4n3C)cc2n1Cc1ccc(-c2ccccc2C(=O)O)cc1 [Telmisartan, telmisartan, reference compound] | – | 11.12 | 38.27 | 15.7 ± 0.84 | 760.1 ± 48.78 | 4.9 ± 0.39 | −11.17 | – | significantly reduced | – | – | no effect | no effect | – | – | not inhibited | no effect | no effect | not inhibited
